Source: paper PMC9814340, “CDK8/19 inhibition plays an important role in pancreatic β-cell induction from human iPSCs” (Stem Cell Research & Therapy, 2023)
Entries after “also recorded” stand apart in the source; their conditions may differ. Where two headings read alike, the source gives them in different places.

Experiments:
[1] = tested on: Salmonella typhimurium TA1537
Text: (§1) Salmonella typhimurium TA100, TA1535, TA98, and TA1537, and Escherichia coli WP2uvrA were used to detect either frameshift mutations (TA98 and TA1537) or base pair substitutions (TA100, TA1535, and WP2uvrA). These strains are widely used and recommended for use in ICH S2(R1) for the bacterial reversion assay.
(§2) In the current study, rat liver S9 fraction, […], was not included because the mutagenicity of compounds should be assessed when simulating cell cultures but not in vivo after metabolism by liver enzymes. Briefly, each tester strain was mixed with seven concentrations (78.1–5000 μg/plate) of each compound and preincubated for 20 min in test tubes. Two plates per dose for the tested compounds and positive control group, and four plates per dose for the negative control group were used. Dimethyl sulfoxide (FUJIFILM Wako) was selected as solvent for the tested compounds and used as negative control. […] Following preincubation, semisolid top agar was added to the tubes, and then, the mixtures were overlaid on minimal glucose agar plates. After the overlaid agar solidified, the plates were stored at 37 °C in an incubator for 48 h.
(§3) Cultures were examined for signs of compound precipitation and other abnormal conditions by eye. Subsequently, cytotoxicity (decreased background lawn) was assessed using a stereomicroscope. The number of revertant colonies on the plates was counted using an automatic colony analyzer (CA-11, System Science Co., Ltd., Tokyo, Japan) or manually when counting by the automatic colony analyzer was inappropriate, e.g., when precipitation was observed.

[2] = molecular target: T1, ALK5 (Homo sapiens, UniProt P36897); experiment: TR-FRET-based competitive binding kinase profiling assay; details: Yes/No summary of Fig. 1d; method not given
T1 construct: Axcelead Drug Discovery Partners (ran the assay)
T1 sequence (P36897 34-503): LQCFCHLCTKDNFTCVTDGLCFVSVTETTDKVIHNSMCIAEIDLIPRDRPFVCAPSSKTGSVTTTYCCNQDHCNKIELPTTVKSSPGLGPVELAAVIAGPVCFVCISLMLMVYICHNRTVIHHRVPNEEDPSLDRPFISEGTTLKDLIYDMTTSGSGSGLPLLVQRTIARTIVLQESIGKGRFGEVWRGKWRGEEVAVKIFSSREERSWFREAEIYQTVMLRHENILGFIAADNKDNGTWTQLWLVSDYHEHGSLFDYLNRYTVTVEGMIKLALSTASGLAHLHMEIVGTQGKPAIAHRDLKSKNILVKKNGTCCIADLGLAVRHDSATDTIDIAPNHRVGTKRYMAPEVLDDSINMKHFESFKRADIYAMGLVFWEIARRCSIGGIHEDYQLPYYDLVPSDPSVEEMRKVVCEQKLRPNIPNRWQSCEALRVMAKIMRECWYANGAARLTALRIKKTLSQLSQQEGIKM

[3] = tested on: β-cells (INS+NKX6.1+) differentiated from human iPSC line Ff-I14-s04; experiment: β-cell induction in iPIC differentiation from hiPSCs (compound at stages 5-7), flow cytometry; format: cell-based; details: for proportion of β-cells (INS+NKX6.1+), representative dot plot: Fig. 3a
Method: For differentiation culture to generate iPICs, we used 2D monolayer to static aggregate culture based on our previous report and 3D stirred-floating aggregate culture. The details of the typical 3D floating culture were as follows.
PD-166866 (1 μM, Merck Millipore) was added from day 4 of stage 6.
Stage 7 medium was based on a previous report with our original modifications. […] To generate iPICs for implantation, cells were dissociated and re-sized in an Elplasia 6-well microwell plate (Corning Incorporated, Corning, NY, USA) or a gas-permeable microwell culture bag (Toyo Seikan Group Holdings, Ltd., Yokohama, Japan) and cultured in the stage 7 medium.
The differentiation efficiency of β-cells (INS^+NKX6.1^+) and endocrine cells (CHGA^+) was analyzed using immunostaining methods and flow cytometry on an LSRFortessa X20 instrument (BD Corporation, Franklin Lakes, NJ, USA), as described previously. The primary antibodies used are detailed in Additional file 1: Table S1. Secondary antibodies were conjugated to Alexa Fluor 488, 546, 568, and 647 of the appropriate species (Thermo Fisher Scientific or Jackson ImmunoResearch, West Grove, PA, USA).

[4] = tested on: Salmonella typhimurium TA100, TA1535, TA98, and TA1537, and Escherichia coli WP2uvrA; experiment: Ames mutagenicity assay (bacterial reverse mutation test), five strains, absence of rat liver S9; details: for Ames Mutagenicity: result in words, absence of rat liver S9, 78.1-5000 μg/plate
Text: as §1, §2, §3

[5] = molecular target: CDK19 (Homo sapiens, UniProt Q9BWU1); experiment: biochemical
Method: (§4) Briefly, BODIPY-FL- or Cy5-FL-conjugated staurosporine derivative that binds to a highly conserved ATP-binding pocket in kinases was used as a fluorescent probe and tested compounds were applied at 0.1 and 1 μM in competitive binding assays for ~ 350 recombinant protein kinases. TR-FRET fluorescent signals from terbium and BODIPY/Cy5-FL were measured using an EnVision plate reader (PerkinElmer, Waltham, MA, USA), and pIC50 values were extrapolated from the inhibition rate.

[6] = molecular target: RIPK2 (Homo sapiens, UniProt O43353); experiment: biochemical
Method: as §4

[7] = molecular target: T2, CDK8 (Homo sapiens, UniProt P49336); experiment: biochemical
Method: as §4

[8] = molecular target: TNIK (Homo sapiens, UniProt Q9UKE5); experiment: biochemical
Method: as §4

[9] = molecular target: TGFBR2 (Homo sapiens, UniProt P37173); experiment: biochemical
Method: as §4

[10] = molecular target: T2, CDK8; parameters: Axcelead Drug Discovery Partners (ran the assay); method as in PMID 28392276; details: cited from earlier work

T2 sequence (P49336 whole entry, species assumed): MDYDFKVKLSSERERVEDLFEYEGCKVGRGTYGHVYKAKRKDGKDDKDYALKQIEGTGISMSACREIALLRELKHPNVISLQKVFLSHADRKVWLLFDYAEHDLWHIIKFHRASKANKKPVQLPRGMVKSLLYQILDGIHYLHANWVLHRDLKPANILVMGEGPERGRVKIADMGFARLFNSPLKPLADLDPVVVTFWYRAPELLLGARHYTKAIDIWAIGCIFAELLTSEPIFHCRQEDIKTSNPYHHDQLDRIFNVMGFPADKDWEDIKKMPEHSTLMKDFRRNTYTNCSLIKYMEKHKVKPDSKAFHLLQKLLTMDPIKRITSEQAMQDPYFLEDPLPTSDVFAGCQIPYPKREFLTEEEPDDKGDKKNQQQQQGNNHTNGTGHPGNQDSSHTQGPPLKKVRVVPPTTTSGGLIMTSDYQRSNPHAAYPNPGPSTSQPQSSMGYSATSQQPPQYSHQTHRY
T2 sequence (P24863 whole entry partner, species assumed): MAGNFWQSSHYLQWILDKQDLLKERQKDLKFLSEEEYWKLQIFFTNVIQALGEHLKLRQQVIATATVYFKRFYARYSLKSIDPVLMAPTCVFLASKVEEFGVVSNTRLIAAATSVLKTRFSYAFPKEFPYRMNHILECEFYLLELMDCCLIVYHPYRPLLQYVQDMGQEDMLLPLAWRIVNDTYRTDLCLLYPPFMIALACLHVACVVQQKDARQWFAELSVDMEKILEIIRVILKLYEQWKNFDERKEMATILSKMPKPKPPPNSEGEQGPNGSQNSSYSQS
Sequence of TGFBR2 (P37173 23-567, species assumed): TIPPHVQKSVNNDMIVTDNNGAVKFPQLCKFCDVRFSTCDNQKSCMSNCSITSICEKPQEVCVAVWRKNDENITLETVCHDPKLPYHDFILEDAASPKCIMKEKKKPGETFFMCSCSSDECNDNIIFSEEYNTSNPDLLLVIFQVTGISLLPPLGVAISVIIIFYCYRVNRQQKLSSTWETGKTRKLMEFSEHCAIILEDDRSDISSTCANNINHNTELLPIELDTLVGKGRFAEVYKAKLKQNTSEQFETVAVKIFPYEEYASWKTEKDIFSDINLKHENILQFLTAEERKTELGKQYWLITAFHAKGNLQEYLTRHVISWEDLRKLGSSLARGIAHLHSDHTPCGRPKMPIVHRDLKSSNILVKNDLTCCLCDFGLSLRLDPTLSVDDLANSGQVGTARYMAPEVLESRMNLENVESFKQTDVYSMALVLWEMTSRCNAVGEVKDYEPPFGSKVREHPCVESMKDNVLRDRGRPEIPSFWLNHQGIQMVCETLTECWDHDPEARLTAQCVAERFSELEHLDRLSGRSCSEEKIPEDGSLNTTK
Sequence of RIPK2 (O43353 whole entry, species assumed): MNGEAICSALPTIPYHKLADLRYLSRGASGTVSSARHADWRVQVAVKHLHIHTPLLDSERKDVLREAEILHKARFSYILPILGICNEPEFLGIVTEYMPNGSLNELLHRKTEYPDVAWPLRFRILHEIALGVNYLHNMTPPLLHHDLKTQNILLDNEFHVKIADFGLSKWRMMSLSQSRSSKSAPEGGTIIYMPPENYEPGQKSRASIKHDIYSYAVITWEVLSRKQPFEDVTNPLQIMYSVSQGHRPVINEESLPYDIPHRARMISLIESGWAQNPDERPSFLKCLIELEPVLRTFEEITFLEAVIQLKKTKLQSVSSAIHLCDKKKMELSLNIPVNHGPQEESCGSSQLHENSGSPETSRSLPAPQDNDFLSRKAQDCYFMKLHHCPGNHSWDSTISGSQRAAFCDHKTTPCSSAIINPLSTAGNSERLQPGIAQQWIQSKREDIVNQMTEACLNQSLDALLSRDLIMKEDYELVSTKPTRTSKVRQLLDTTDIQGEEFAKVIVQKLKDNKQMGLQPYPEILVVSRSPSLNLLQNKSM
Sequence of TNIK (Q9UKE5 whole entry, species assumed): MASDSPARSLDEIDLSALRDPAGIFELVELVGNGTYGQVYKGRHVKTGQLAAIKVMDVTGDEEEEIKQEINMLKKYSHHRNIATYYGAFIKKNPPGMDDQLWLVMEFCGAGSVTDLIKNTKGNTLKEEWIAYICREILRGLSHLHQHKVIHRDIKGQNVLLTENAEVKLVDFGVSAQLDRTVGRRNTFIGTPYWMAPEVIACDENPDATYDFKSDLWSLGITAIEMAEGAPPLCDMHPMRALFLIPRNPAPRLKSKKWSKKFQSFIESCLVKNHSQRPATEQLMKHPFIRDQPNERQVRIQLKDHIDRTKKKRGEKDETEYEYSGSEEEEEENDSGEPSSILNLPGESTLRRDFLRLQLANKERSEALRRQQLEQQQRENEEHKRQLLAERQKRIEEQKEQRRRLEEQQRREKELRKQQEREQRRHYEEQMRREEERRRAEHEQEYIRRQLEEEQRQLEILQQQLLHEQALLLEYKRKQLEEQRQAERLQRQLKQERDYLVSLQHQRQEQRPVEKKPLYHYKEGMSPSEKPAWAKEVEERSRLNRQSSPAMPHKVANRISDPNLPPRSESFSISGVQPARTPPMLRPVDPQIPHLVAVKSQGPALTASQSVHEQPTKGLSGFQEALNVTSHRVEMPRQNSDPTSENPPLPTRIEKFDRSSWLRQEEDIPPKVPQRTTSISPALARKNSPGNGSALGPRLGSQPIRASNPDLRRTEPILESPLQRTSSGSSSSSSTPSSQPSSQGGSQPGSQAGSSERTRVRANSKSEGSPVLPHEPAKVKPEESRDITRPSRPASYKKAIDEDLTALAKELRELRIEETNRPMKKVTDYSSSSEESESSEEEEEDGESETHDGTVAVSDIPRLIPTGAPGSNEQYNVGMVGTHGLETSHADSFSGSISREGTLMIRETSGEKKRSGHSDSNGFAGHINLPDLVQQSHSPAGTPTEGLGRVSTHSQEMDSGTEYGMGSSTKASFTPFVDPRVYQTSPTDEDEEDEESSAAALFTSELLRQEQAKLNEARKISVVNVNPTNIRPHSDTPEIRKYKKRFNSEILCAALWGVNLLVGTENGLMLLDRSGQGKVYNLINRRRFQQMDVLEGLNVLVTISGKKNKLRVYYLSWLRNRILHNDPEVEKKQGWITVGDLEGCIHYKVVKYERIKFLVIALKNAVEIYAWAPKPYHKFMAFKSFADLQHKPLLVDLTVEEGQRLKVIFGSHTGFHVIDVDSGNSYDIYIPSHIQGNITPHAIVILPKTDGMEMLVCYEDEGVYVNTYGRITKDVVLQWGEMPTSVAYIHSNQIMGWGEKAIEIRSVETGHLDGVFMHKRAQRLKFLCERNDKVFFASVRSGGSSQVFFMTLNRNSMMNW
Sequence of CDK19 (Q9BWU1 whole entry, species assumed): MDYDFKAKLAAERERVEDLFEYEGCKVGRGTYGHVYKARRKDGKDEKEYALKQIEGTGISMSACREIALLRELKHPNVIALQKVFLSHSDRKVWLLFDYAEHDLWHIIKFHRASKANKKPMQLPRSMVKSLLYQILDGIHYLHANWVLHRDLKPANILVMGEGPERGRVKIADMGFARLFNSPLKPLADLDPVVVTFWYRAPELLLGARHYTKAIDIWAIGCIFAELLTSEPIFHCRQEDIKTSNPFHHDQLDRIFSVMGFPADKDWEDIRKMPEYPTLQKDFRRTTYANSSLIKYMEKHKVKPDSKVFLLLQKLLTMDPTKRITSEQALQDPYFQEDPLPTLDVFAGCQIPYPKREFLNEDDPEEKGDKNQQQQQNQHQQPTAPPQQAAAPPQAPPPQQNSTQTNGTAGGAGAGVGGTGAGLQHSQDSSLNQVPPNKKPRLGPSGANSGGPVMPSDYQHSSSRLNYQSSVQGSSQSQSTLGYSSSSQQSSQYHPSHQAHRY
Sequence of CDK19 (P24863 whole entry partner, species assumed): as the sequence (P24863 whole entry partner, species assumed) above

In the case of `Cl.Nc1c2ccccc2nc2ccccc12.O` [9-AA, 9-aminoacridine hydrochloride monohydrate], the “TA1537, -S9 # colony” value ([1]; positive control, 80 μg) is reported as 169.
With `Cc1cccc(-c2n[nH]cc2-c2ccc3ncccc3n2)n1` [ALK5iII] the ALK5 inhibition [2] was “Yes”, the “Ames response in the TA1537 strain” value [1] was “positive response” and the “TA1537, -S9 # colony” value ([1]; Salmonella typhimurium) was 8. The “proportion of β-cells (INS+NKX6.1+), representative dot plot” value (“proportion of β-cells (INS+NKX6.1+)” below) ([3]; 10 μM ALK5iII at stages 5-7) was 35.0%, the Ames mutagenicity test ([4]; Fig. 1b flowchart, absence of S9, positive = mean revertant colonies at least twofold the negative control in any strain) was “(+)” and the “Ames Mutagenicity” value [4] was “Positive”. It also gave an IC50 [5] of 66.1 nM, an IC50 [6] of 151 nM and an IC50 [7] of 158 nM. The IC50 [8] was 661 nM and the IC50 [9] was 107 nM.
In the case of `CN(C)C(=O)Cn1cc(-c2ccc(-c3cncc4ccccc34)cc2)cn1` [BI-1347], the “proportion of β-cells (INS+NKX6.1+)” value ([3]; 3 nM, instead of ALK5iII, stages 5-7) is reported as 39.8%.
With `COc1ccc2nc3cc(Cl)ccc3c(NCCCNCCCl)c2c1.Cl.Cl` [ICR, [6-Chloro-9-(3-[2-chloroethylamino]propylamino)-2-methoxyacridine] dihydrochloride] the “TA1537, -S9 # colony” value ([1]; positive control, 1.0 μg) was 1804.
For `NC(=O)c1ccc(-c2nc(-c3ccc4c(c3)OCO4)c(-c3ccccn3)[nH]2)cc1` [SB431542], the “Ames Mutagenicity” value [4] was “did not have mutagenic potential; also recorded: negative”.
With `Cc1cccc(-c2[nH]c(C(C)(C)C)nc2-c2ccc3nccnc3c2)n1` [SB525334] the “Ames Mutagenicity” value [4] was “Negative; also recorded: did not have mutagenic potential”.
In the case of `CN1CCN(C(=O)c2ccc3cc(CCNc4ncnc5ccc(C#N)cc45)ccc3c2)CC1` [Senexin B], the “proportion of β-cells (INS+NKX6.1+)” value ([3]; 0.1 μM, instead of ALK5iII, stages 5-7) is reported as 39.7%.
For `c1cncc(-c2n[nH]cc2-c2cnc3ccccc3n2)c1` [TR04411299], the ALK5 inhibition [2] was “No and did not inhibit ALK5”, the “TA1537, -S9 # colony” value ([1]; 78.1 μg/plate, DMSO control 8 (ALK5 inhibitor II) / 9 (TR04411299)) was 5 and the “TA1537, -S9 # colony” value ([1]; 156 μg/plate, DMSO control 8 / 9) was 9. For the same compound, the “TA1537, -S9 # colony” value ([1]; 313 μg/plate, DMSO control 8 / 9) was 21, the “TA1537, -S9 # colony” value ([1]; 625 μg/plate, DMSO control 8 / 9) was 45 and the “TA1537, -S9 # colony” value ([1]; 1250 μg/plate, DMSO control 8 / 9) was 82. For the same compound, the “TA1537, -S9 # colony” value ([1]; 2500 μg/plate, DMSO control 8 / 9) was 128, the “TA1537, -S9 # colony” value ([1]; 5000 μg/plate, DMSO control 8 / 9) was 194 and the “Ames Mutagenicity” value [4] was “positive result”.
In the case of `Cn1cc(-c2ccnc(O)c2/C=C/C(=O)Nc2ccc(CN3CCOCC3)cc2)cn1` [TR05978156], the IC50 [10] is listed as over 10000 nM and the “β-cell induction / differentiation efficiency” value ([3]; result in words, compound replaces ALK5iII at stages 5-7) is listed as “did not induce β-cells efficiently”.
In the case of `O=C(/C=C/c1cnccc1-c1cnn(C2CC2)c1)Nc1ccc(CN2CCOCC2)cc1` [TR06096159], the IC50 [10] is given as 6.4 nM.
